# PMC4391943, “Novel Epigallocatechin-3-Gallate (EGCG) Derivative as a New Therapeutic Strategy for Reducing Neuropathic Pain after Chronic Constriction Nerve Injury in Mice” (PLoS ONE, 2015)
# Read-outs that look alike come from different tables or passages of the source.
# Assays:
# [1] = set-up: method as in PMID 22559865; conditions: daily doses of 5, 25 or 40 mg/Kg; cited from earlier work
# [2] = Hepatic, renal and hematological function serum markers in treated mice; assay type: in vivo, Balb/c; conditions: for Hematocrit / Hemoglobin / Lymphocytes / Monocytes / Neutrophils / platelet count: Balb/c; for ALP (alkaline phosphatase), hepatic function / ALT (alanine transaminase), hepatic function / AST (aspartate transaminase), hepatic function / BUN (urea), renal function / Creatinin, renal function: Balb/c serum
smiles,measurement,setting,value
"O=C(Oc1cccc2c(OC(=O)c3cc(O)c(O)c(O)c3)cccc12)c1cc(O)c(O)c(O)c1 [Compound 23, 1,5-Bis [(3,4,5-trihydroxybenzoyl)oxy] naphthalene]","hepatic, renal and hematological function serum markers vs control",[1],no significant alteration
"O=C(Oc1ccc(-c2ccc(OC(=O)c3cc(O)c(O)c(O)c3)cc2)cc1)c1cc(O)c(O)c(O)c1 [Compound 30, 4,4′-Bis [(3,4,5-trihydroxybenzoyl)oxy]-1,1′-biphenyl]",Hematocrit,[2]; 50 mg/Kg,42.4 ± 2.2%
same,Hemoglobin,[2]; 50 mg/Kg,14.2 ± 0.8 g/dL
same,Lymphocytes,[2]; 50 mg/Kg,51.2 ± 13.9%
same,Monocytes,[2]; 50 mg/Kg,1.4 ± 0.1%
same,Neutrophils,[2]; 50 mg/Kg,32.0 ± 22.9%
same,platelet count,[2]; 50 mg/Kg,826 10^3/µL
same,"ALP (alkaline phosphatase), hepatic function",[2]; 50 mg/Kg,97.2 ± 20.3 U/L
same,"ALT (alanine transaminase), hepatic function",[2]; 50 mg/Kg,210.3 ± 28.2 U/L
same,"AST (aspartate transaminase), hepatic function",[2]; 50 mg/Kg,266.5 + 80.3 U/L
same,"BUN (urea), renal function",[2]; 50 mg/Kg,21.9 ± 7.5 mg/dL
same,"Creatinin, renal function",[2]; 50 mg/Kg,0.30 ± 0.1 mg/dL
same,Hematocrit,[2]; 75 mg/Kg,38.3 ± 2.8%
same,Hemoglobin,[2]; 75 mg/Kg,13.6 ± 0.3 g/dL
same,Lymphocytes,[2]; 75 mg/Kg,50.2 ± 7.5%
same,Monocytes,[2]; 75 mg/Kg,1.9 ± 1.4%
same,Neutrophils,[2]; 75 mg/Kg,30.7 ± 8.1%
same,platelet count,[2]; 75 mg/Kg,849 10^3/µL
same,"ALP (alkaline phosphatase), hepatic function",[2]; 75 mg/Kg,86.5 ± 30.3 U/L
same,"ALT (alanine transaminase), hepatic function",[2]; 75 mg/Kg,290.2 + 31 U/L
same,"AST (aspartate transaminase), hepatic function",[2]; 75 mg/Kg,320.3 + 45.5 U/L
same,"BUN (urea), renal function",[2]; 75 mg/Kg,21.1 ± 6.8 mg/dL
same,"Creatinin, renal function",[2]; 75 mg/Kg,0.31 ± 0.1 mg/dL
same,"hepatic, renal and hematological function serum markers vs control",[2]; daily doses of 50 and 75 mg/Kg (S2 Table),no significant alteration
